Where only a bound is given, the exact number is not on record here.

This experiment has as its target T1, Endothelial lipase (Homo sapiens, UniProt Q9Y5X9).
T1 sequence (Q9Y5X9 whole entry): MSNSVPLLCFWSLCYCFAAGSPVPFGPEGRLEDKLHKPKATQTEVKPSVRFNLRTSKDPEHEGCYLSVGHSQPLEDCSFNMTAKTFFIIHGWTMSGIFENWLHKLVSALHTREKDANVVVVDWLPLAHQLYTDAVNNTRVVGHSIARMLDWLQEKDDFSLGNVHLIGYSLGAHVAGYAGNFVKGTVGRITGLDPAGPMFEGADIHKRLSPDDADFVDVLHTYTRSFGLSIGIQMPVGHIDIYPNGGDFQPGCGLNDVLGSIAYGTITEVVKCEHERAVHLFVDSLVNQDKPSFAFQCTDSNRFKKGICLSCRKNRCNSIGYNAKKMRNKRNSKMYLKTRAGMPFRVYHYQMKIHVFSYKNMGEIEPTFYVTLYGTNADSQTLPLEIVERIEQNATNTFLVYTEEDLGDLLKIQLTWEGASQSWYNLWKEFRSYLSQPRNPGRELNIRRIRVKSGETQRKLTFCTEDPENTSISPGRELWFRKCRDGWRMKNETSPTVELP
The experiment in a line: Enzymatic Assay: The enzymatic assay was measured using white, opaque 96-well half area plates. Each well contained 60 μL of assay buffer (50 mM HEPES pH 8.0, 50 mM NaCl and 1 mM CaCl2) and 2 ul of a DMSO solution containing compound of interest. Conditioned media obtained from HT-1080 cells, which were transformed by RAGE technology (Athersys) to overexpress endogenous EL, was added and the reaction was allowed to incubate for 20 min at 37° C. with gentle agitation. The reaction was started by the addition of 20 μL of a 1:4 dilution of vesicles. The final total reaction volume was 100 μL. The reaction rates were measured on a Gemini plate reader with an excitation wavelength of 488 nm and an emission of 530 nm. Readings were taken every 20 seconds for 10 min with agitation between each reading. It counts as cell-based.
Regarding `CC(C)(C)CN1CC(c2nnc(C(=O)c3nc4c(F)cc(-c5ccccc5)cc4s3)o2)C1`, the half-maximal inhibitory concentration (IC50) (commonly the concentration at which inhibition is half-maximal) amounted to 18 nM. Turning to `C[C@H](NC(=O)OC(C)(C)C)c1nnc(C(=O)c2nc3ccc(-c4ccccc4)cc3s2)o1`, the IC50 is 66 nM. The molecule `COc1nc(-c2nnc(C(=O)c3nc4ccc(-c5ccc(F)cc5)cc4s3)o2)c(OCc2ccccc2)c(=O)[nH]1` displayed an IC50 of 122 nM. `O=C1NC(=O)C(Cc2nnc(C(=O)c3nc4ccc(-c5ccccc5)cc4s3)o2)S1` (stereo not given) returned an IC50 below 10 nM. Consider `COc1nc(-c2nnc(C(=O)c3nc4ccc(-c5ccccc5)cc4s3)o2)c(OCc2ccccc2)c(=O)[nH]1`, for which the IC50 came out at 76 nM. Molecule `C[C@@H](NC(=O)OC(C)(C)C)c1nnc(C(=O)c2nc3ccc(-c4ccccc4)cc3s2)o1` registered an IC50 below 10 nM.

Molecule `O=C1NC(=O)C(Cc2nnc(C(=O)c3nc4ccc(-c5ccccc5)cc4s3)o2)N1` (stereo not given) came in with an IC50 below 10 nM.

The molecule `CC(C)(C)CN1CC(c2nnc(C(=O)c3nc4ccc(-c5ccc(F)cc5)cc4s3)o2)C1` displayed a half-maximal inhibitory concentration (IC50) of 4.8 nM. For `NS(=O)(=O)Cc1nnc(C(=O)c2nc3ccc(-c4ccccc4)cc3s2)o1` the value was below 10 nM; for `CC1(Cc2nnc(C(=O)c3nc4ccc(-c5ccccc5)cc4s3)o2)NC(=O)N(CC(F)(F)F)C1=O` (stereo not given), below 10 nM.

The values above are taken from ChEMBL document CHEMBL3886313, “Ketone linked benzothiazole inhibitors of endothelial lipase” (2015).
